Measurements as given in patent publication US12060333B2 (Hoffmann-La Roche Inc., priority 2021, dated 2024).
Values joined by “and” are separate entries in the source; they are usually repeats but may differ in a detail not shown here. Identical values can stand only once. Like-named read-outs stand apart in the source and are kept apart here.

How the values were obtained:
SARS-CoV 3CLpro = SARS-CoV 3CLpro (Severe acute respiratory syndrome coronavirus, UniProt P0C6X7); experiment: biochemical
SARS-CoV-2 3CLpro = SARS-CoV-2 3CLpro (Severe acute respiratory syndrome coronavirus 2, UniProt P0DTD1); experiment: biochemical
MERS-CoV 3CLpro = MERS-CoV 3CLpro (Middle East respiratory syndrome-related coronavirus, UniProt K9N7C7); experiment: biochemical
HCoV-229E 3CLpro = HCoV-229E 3CLpro (Human coronavirus 229E, UniProt P0C6X1); experiment: HCoV-229E 3CLpro inhibition assay (FRET); type: biochemical; conditions: protease 25 nM, FRET substrate 15 μM, pre-incubated 1 hr, read-out: 229E (activity in different coronaviruses)
Method: HCoV-229E 3CL^pro inhibition assay
The HCoV-229E 3CL^pro was expressed in E. coli BL21 (DE3) with the protein sequence of
For the HCoV-229E 3CL^pro assay, 2 μL of […] recombinant HCoV-229E 3CL protease were mixed with serial dilutions of each compound in 4 μL assay buffer containing 40 mM HEPES, pH=8.0, 1 mM CHAPS, 150 mM NaCl, 1 mM EDTA, 1 mM TCEP in a well of a 384-well plate and pre-incubated at rt for 1 hr. The custom-synthesized fluorogenic 3CL^pro peptide substrate used in the assay is as follows: FAM-[…]-TAMRA (peptide sequence according to SEQ ID NO: 3). This FRET-based substrate contains a FAM fluorophore attached at the N-terminus of a canonical 3CL^pro peptide substrate. The fluorophore is internally quenched by the TAMRA. The reaction was initiated by the addition of 10 μL of the substrate with a final concentration of 15 μM and each well was incubated at RT for 30 mins. The final concentration of the protease used at the assay was 25 nM and each compound was at a final concentration range of 100-0.0016 μM. The IC50 value which is the value causing 50% inhibition of the catalytic activity of the HCoV-229E 3CL^pro was calculated by four parameters equation analysis.

[1] = IC50 (μM), SARS-CoV-2 3CLPro assay
[2] = read-out: IC50 (μM), SARS-CoV-2 3CLPro assay

Compound | IC50 (HCoV-229E 3CLpro) | IC50 (SARS-CoV-2 3CLpro; [2]) | further results
CC(C)C[C@H](NC(=O)c1cc2ccccc2[nH]1)C(=O)NN(C[C@@H]1CCNC1=O)C(=O)CCl (single isomer, unassigned) [Example 51-A] | 17 nM |  | IC50 (SARS-CoV 3CLpro): 15 nM; IC50 (SARS-CoV-2 3CLpro; [1]): 0.004 µM and 0.0027 µM; IC50 (MERS-CoV 3CLpro): 60 nM
CC(C)C[C@H](NC(=O)c1cc2ccccc2[nH]1)C(=O)NN(CCC(N)=O)C(=O)CCl [Example 28, N-[(1S)-1-[[(3-amino-3-oxo-propyl)-(2-chloroacetyl)amino]carbamoyl]-3-methyl-butyl]-1H-indole-2-carboxamide] | 13 nM | 0.007 µM | IC50 (SARS-CoV 3CLpro): 16 nM; IC50 (MERS-CoV 3CLpro): 50 nM
Cc1cc(C(=O)N[C@@H](CC2CCCCC2)C(=O)NN(CCC(N)=O)C(=O)CCl)no1 [Example 48, N-[(1S)-2-[2-(3-amino-3-oxo-propyl)-2-(2-chloroacetyl)hydrazino]-1-(cyclohexylmethyl)-2-axo-ethyl]-5-methyl-isoxazole-3-carboxamide] |  | 0.004 µM | 
COc1cccc2[nH]c(C(=O)N[C@@H](CC(C)C)C(=O)NN(CCC(N)=O)C(=O)C(F)Cl)cc12 (stereo partly drawn) [Example 49, 4-Methoxy-N-[(1S)-1-[[(3-amino-3-oxo-propyl)-(2-chloro-2-fluoro-acetyl)amino]carbamoyl]-3-methyl-butyl]-1H-indole-2-carboxamide] |  | 0.015 µM | 
CNC(=O)CCN(NC(=O)[C@H](CC(C)C)N(C)C(=O)c1cc2ccccc2[nH]1)C(=O)CCl [Example 50, N-[(1S)-1-[[(2-Chloroacetyl)-[3-(methylamino)-3-oxo-propyl]amino]carbamoyl]-3-methyl-butyl]-N-methyl-1H-indole-2-carboxamide] |  | 0.074 µM | 
CC(C)C[C@H](NC(=O)c1cc2cnccc2[nH]1)C(=O)NN(CCC(N)=O)C(=O)CCl [Example 52, N-[(1S)-1-[[(3-amino-3-oxo-propyl)-(2-chloroacetyl)amino]carbamoyl]-3-methyl-butyl]-1H-pyrrolo[3,2-c]pyridine-2-carboxamide] |  | 0.014 µM | 
COc1cccc2[nH]c(C(=O)N[C@@H](CC3CCCCC3)C(=O)NN(CCC(N)=O)C(=O)[C@H](F)Cl)cc12 [Example 56-A, N-[(1S)-2-[2-(3-amino-3-oxo-propyl)-2-[(2R)-2-chloro-2-fluoro-acetyl]hydrazino]-1-(cyclohexylmethyl)-2-axo-ethyl]-4-methoxy-1H-indole-2-carboxamide] |  | 0.008 µM | 
COc1cccc2[nH]c(C(=O)N[C@@H](CC3CCCCC3)C(=O)NN(CCC(N)=O)C(=O)[C@H](F)Cl)cc12 [Example 56-B, N-[(1S)-2-[2-(3-amino-3-oxo-propyl)-2-[(2S)-2-chloro-2-fluoro-acetyl]hydrazino]-1-(cyclohexylmethyl)-2-axo-ethyl]-4-methoxy-1H-indole-2-carboxamide] |  | 0.003 µM | 
NC(=O)CCN(NC(=O)[C@H](CC1CCCCC1)NC(=O)c1cc2ccccc2[nH]1)C(=O)[C@@H](F)Cl [Example 59-A, N-[(1S)-2-[2-(3-amino-3-oxo-propyl)-2-[(2S)-2-chloro-2-fluoro-acetyl]hydrazino]-1-(cyclohexylmethyl)-2-axo-ethyl]-1H-indole-2-carboxamide] |  | 0.023 µM | 
NC(=O)CCN(NC(=O)[C@H](CC1CCCCC1)NC(=O)c1cc2ccccc2[nH]1)C(=O)[C@H](F)Cl [Example 59-B, N-[(1S)-2-[2-(3-amino-3-oxo-propyl)-2-[(2R)-2-chloro-2-fluoro-acetyl]hydrazino]-1-(cyclohexylmethyl)-2-axo-ethyl]-1H-indole-2-carboxamide] |  | 0.005 µM | 
Cc1cc(C(=O)N[C@@H](CC2(C)CC2)C(=O)NN(C[C@@H]2CCNC2=O)C(=O)[C@H](F)Cl)no1 [Example 70, N-[(1S)-2-[2-[(2R)-2-chloro-2-fluoro-acetyl]-2-[[(3S)-2-axopyrrolidin-3-yl]methyl]hydrazino]-1-[(1-methylcyclopropyl)methyl]-2-axo-ethyl]-5-methyl-isoxazole-3-carboxamide] | 24 nM |  | IC50 (SARS-CoV 3CLpro): 94 nM; IC50 (SARS-CoV-2 3CLpro; [1]): 0.059 µM; IC50 (MERS-CoV 3CLpro): 54 nM
Cc1cc(C(=O)N[C@@H](CC23CC(C2)C3)C(=O)NN(C[C@@H]2CCNC2=O)C(=O)[C@H](F)Cl)no1 [Example 71, N-[(1S)-1-(1-bicyclo[1.1.1]pentanylmethyl)-2-[2-[(2R)-2-chloro-2-fluoro-acetyl]-2-[[(3S)-2-axopyrrolidin-3-yl]methyl]hydrazino]-2-axo-ethyl]-5-methyl-isoxazole-3-carboxamide] | 25 nM |  | IC50 (SARS-CoV-2 3CLpro; [1]): 0.11 µM
CC(C)(C)C[C@H](NC(=O)c1cnccn1)C(=O)NN(CCC(N)=O)C(=O)C(F)Cl (stereo partly drawn) [Example 78, N-[rac-(1S)-1-[[(3-amino-3-oxo-propyl)-(2-chloro-2-fluoro-acetyl)amino]carbamoyl]-3,3-dimethyl-butyl]pyrazine-2-carboxamide] |  |  | IC50 (SARS-CoV-2 3CLpro; [1]): 0.25 µM
CC(C)C[C@H](NC(=O)c1cc2ncccc2[nH]1)C(=O)NN(CCC(N)=O)C(=O)C(F)Cl (stereo partly drawn) [Example 91, N-[(1S)-1-[[(3-amino-3-oxo-propyl)-(2-chloro-2-fluoro-acetyl)amino]carbamoyl]-3-methyl-butyl]-1H-pyrrolo[3,2-b]pyridine-2-carboxamide] |  | 0.038 µM | 
CC1(C[C@H](NC(=O)c2cc(C(F)(F)F)on2)C(=O)NN(C[C@@H]2CCNC2=O)C(=O)[C@H](F)Cl)CC1 [Example 98, N—((S)-1-(2-((R)-2-Chloro-2-fluoroacetyl)-2-(((S)-2-axopyrrolidin-3-yl)methyl)hydrazineyl)-3-(1-methylcyclopropyl)-1-oxopropan-2-yl)-5-(trifluoromethyl)isoxazole-3-carboxamide] |  | 0.017 µM | 
O=C(N[C@@H](CC12CC(C1)C2)C(=O)NN(C[C@@H]1CCNC1=O)C(=O)[C@H](F)Cl)c1cc(C(F)(F)F)on1 [Example 99, N-[(1S)-1-(1-bicyclo[1.1.1]pentanylmethyl)-2-[2-[(2R)-2-chloro-2-fluoro-acetyl]-2-[[(3S)-2-axopyrrolidin-3-yl]methyl]hydrazino]-2-axo-ethyl]-5-(trifluoromethyl)isoxazole-3-carboxamide] | 24 nM | 0.071 µM | 
CC1(C[C@H](NC(=O)c2cc(C(F)F)on2)C(=O)NN(C[C@@H]2CCNC2=O)C(=O)[C@H](F)Cl)CC1 [Example 100, N-[(1S)-2-[2-[(2R)-2-chloro-2-fluoro-acetyl]-2-[[(3S)-2-axopyrrolidin-3-yl]methyl]hydrazino]-1-[(1-methylcyclopropyl)methyl]-2-axo-ethyl]-5-(difluoromethyl)isoxazole-3-carboxamide] | 28 nM |  | IC50 (SARS-CoV 3CLpro): 31 nM; IC50 (SARS-CoV-2 3CLpro; [1]): 0.024 µM; IC50 (MERS-CoV 3CLpro): 94 nM
Cc1cc(C(=O)N[C@@H](CCC(C)C)C(=O)NN(C[C@@H]2CCNC2=O)C(=O)[C@H](F)Cl)no1 [Example 101, N-[(1S)-1-[[[(2R)-2-chloro-2-fluoro-acetyl]-[[(3S)-2-axopyrrolidin-3-yl]methyl]amino]carbamoyl]-4-methyl-pentyl]-5-methyl-isoxazole-3-carboxamide] | 74 nM | 0.09 µM | IC50 (SARS-CoV 3CLpro; read-out: SARS (activity in different coronaviruses)): 160 nM; IC50 (MERS-CoV 3CLpro): 320 nM
N-[(1S)-1-[[(3-amino-3-oxo-propyl)-[(2R)-2-chloro-2-fluoro-acetyl]amino]carbamoyl]-3-methyl-butyl]-1H-pyrrolo[2,3-c]pyridine-2-carboxamide and N-[(1S)-1-[[(3-amino-3-oxo-propyl)-[(2S)-2-chloro-2-fluoro-acetyl]amino]carbamoyl]-3-methyl-butyl]-1H-pyrrolo[2,3-c]pyridine-2-carboxamide [Example 88] |  | 0.013 µM | 
